The target in one experiment is T1, human EphB4 (Homo sapiens, UniProt P54760).
T1 construct: to generate full-length EphB4 containing a Myc-His tag at the C-terminus; expressed in transfected cells; EphB4-CHO)
T1 sequence (P54760 16-987): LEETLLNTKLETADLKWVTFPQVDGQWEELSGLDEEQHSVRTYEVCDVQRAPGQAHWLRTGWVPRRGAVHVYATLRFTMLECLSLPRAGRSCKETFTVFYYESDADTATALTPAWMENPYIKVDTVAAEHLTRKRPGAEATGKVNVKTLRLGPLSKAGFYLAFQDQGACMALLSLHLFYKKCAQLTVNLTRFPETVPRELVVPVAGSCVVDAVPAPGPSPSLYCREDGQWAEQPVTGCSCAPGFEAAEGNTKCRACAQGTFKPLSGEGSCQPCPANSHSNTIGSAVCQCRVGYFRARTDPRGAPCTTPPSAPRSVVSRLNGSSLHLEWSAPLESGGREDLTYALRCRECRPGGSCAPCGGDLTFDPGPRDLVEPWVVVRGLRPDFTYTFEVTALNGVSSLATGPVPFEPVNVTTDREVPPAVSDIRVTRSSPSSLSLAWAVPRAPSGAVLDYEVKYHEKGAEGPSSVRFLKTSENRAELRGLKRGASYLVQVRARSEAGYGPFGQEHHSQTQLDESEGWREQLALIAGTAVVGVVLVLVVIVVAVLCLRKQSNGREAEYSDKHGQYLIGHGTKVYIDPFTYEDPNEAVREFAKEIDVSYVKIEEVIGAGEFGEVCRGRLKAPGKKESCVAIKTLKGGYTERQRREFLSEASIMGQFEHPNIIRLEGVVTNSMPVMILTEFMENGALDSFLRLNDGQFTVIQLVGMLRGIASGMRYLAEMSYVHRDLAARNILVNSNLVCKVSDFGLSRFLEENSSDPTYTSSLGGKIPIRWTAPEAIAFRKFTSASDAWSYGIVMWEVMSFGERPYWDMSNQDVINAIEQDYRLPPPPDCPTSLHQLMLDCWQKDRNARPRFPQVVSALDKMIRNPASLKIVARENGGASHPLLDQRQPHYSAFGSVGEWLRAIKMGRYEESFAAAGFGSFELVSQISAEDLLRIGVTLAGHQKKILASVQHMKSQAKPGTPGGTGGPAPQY
The experiment is described as follows: In vitro EphB4 cell assay (EphB4 phosphorylation in EphB4-CHO cells, sandwich ELISA). Format: cell-based. The note with it: Assay B. The protocol:
The assay identifies inhibitors of cellular EphB4 by measuring a decrease in phosphorylation of EphB4 following treatment of cells with compound. The endpoint assay used a sandwich ELISA to detect EphB4 phosphorylation status. Briefly, Myc-tagged EphB4 from treated cell lysate was captured on the ELISA plate via an anti-c-Myc antibody. The phosphorylation status of captured EphB4 was then measured using a generic phosphotyrosine antibody conjugated to HRP via a colourimetric output catalysed by HRP, with level of EphB4 phosphorylation directly proportional to the colour intensity. Absorbance was measured spectrophotometrically at 450 nm.
Full length human EphB4 (Swiss-Prot Acc. No. P54760) was cloned using standard techniques from cDNA prepared from HUVEC using RT-PCR. The cDNA fragment was then sub-cloned into a pcDNA3.1 expression vector containing a Myc-His epitope tag to generate full-length EphB4 containing a Myc-His tag at the C-terminus (Invitrogen Ltd. Paisley, UK). […] CHO-K1 cells were engineered to stably express the EphB4-Myc-His construct using standard stable transfection techniques, to generate cells hereafter termed EphB4-CHO.
On day 2, the cells were incubated overnight in 90 μl/well of media containing 0.1% Hyclone stripped-serum (Fisher Scientific UK, Catalogue No. SH30068.02). […] A 10 μl aliquot of each compound dilution was transferred to the cell plates in duplicate wells, and the cells incubated for 1 hr at 37° C.
Following compound treatment, cells were stimulated with clustered ephrin-B2 at a final concentration of 1 μg/ml for 20 minutes at 37° C. to induce EphB4 phosphorylation. Following stimulation, the medium was removed and the cells lysed in 100 μl/well of lysis buffer (25 mM Tris HCl, 3 mM EDTA, 3 mM EGTA, 50 mM NaF, 2 mM orthovanadate, 0.27M Sucrose, 10 mM β-glycerophosphate, 5 mM sodium pyrophosphate, 2% Triton X-100, pH 7.4).
Plates were washed twice with PBS/0.05% Tween-20 and incubated with 100 μl/well cell lysate overnight at 4° C. […] ELISA plates were washed four times with PBS/0.05% Tween-20 and developed with 100 μl/well TMB substrate (Sigma-Aldrich Company Ltd, Catalogue No. T0440). The reaction was stopped after 15 minutes with the addition of 25 μl/well 2M sulphuric acid. The absorbances were determined at 450 nm using the Tecan SpectraFluor Plus. The minimum value was subtracted from all values, and the signal plotted against compound concentration to generate IC50 data.
A general note: An ELISA detects its analyte on a solid surface through an enzyme-linked reagent.

Another experiment concerns the target T2, recombinant EphB4 (Homo sapiens, UniProt P54760).
T2 construct: amino acids 563-987; Swiss-Prot Acc; No. P54760; purchased ProQinase GmbH 0178-0000-3
T2 sequence (P54760 563-987): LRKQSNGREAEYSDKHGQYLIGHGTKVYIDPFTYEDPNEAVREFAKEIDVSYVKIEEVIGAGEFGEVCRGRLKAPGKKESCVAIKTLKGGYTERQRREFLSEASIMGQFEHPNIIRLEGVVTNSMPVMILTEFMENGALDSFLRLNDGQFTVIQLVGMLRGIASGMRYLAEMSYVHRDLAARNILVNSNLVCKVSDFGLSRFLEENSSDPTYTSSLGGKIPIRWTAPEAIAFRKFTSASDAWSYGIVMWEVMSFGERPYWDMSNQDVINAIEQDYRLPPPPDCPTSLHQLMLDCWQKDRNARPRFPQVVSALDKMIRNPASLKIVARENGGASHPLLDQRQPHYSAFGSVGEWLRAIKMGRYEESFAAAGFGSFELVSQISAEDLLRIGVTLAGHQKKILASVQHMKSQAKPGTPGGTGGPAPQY
The experiment is described as follows: In vitro EphB4 enzyme assay (Alphascreen). In kind it is biochemical. The gist of the method:
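Recombinant EphB4 phosphorylated biotin-poly-GAT with Mg-ATP for 1 hr at room temperature; EDTA stop, then Alphascreen donor/acceptor (anti-phosphotyrosine) beads for 20 hrs in the dark. After minimum subtraction, signal plotted against compound concentration to derive IC50.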
For orientation: Bead proximity is the source of the signal in Alpha formats.

For experiment [1], the system named is Human Colorectal cancer cells (HT29). Briefly: In vivo tumour explant model. Also noted: species or system nude male mice (nu/nu:Alpk). The settings on record: HT29 tumours in nude mice, 100 mg/kg b.i.d. orally, 16 consecutive days. Here is the method: Human Colorectal cancer cells (HT29 5×10^6 (ATCC HTB-38)) were implanted subcutaneously on to the left flank of nude male mice (nu/nu:Alpk). Actively growing tumours approx 0.2-0.3 cm^3 were selected and randomised. […] Tumours were measured twice weekly and volumes (cm^3) calculated (π/6×(length×width×width)/1000). On the final day of the dosing the tumours were measured, percent growth inhibition was then calculated compared to the control ((([…]-1))*100), where GMDV is the geometric delta volume of either treated (T) or control (C), and a T-Test was performed to establish significance.

Our source for the IC50 and tumour volume values is patent US20080242663A1, “NOVEL PYRIMIDINE DERIVATIVES 698” (ASTRAZENECA AB, priority 2007, published 2008).

In general, IC50 refers to the midpoint of a concentration-inhibition curve.

Consider `CN(c1ccnc(Nc2cc(N3CCCOCC3)cc(N3CCOCC3)c2)n1)c1ccc(F)c(Cl)c1F` [Example 2.10, N′-(3-chloro-2,4-difluoro-phenyl)-N′-methyl-N-[3-morpholin-4-yl-5-(1,4-oxazepan-4-yl)phenyl]pyrimidine-2,4-diamine], for which the IC50 on human EphB4 is 11 nM; at recombinant EphB4, 1270 nM.

With `CC(C)OCc1cc(Nc2nccc(N(C)c3ccc(F)c(Cl)c3F)n2)cc(N2CCOCC2)c1` [Example 2.15, N′-(3-chloro-2,4-difluoro-phenyl)-N′-methyl-N-[3-morpholin-4-yl-5-(propan-2-yloxymethyl)phenyl] pyrimidine-2,4-diamine], the IC50 at human EphB4 stood at 17 nM; on recombinant EphB4, 1110 nM.

With `Cc1ccc(CO)cc1N(C)c1ccnc(Nc2cc(N3CCOCC3)cc(N3CCOCC3)c2)n1` [[3-[[2-[(3,5-dimorpholin-4-ylphenyl)amino]pyrimidin-4-yl]-methyl-amino]-4-methyl-phenyl]methanol], the tumour volume entry in experiment [1] was “reducing tumour volume”. As to `CN(c1ccnc(Nc2cc(CN3CCCC3)cc(N3CCOCC3)c2)n1)c1ccc(F)c(Cl)c1F` [Example 2.17, N′-(3-chloro-2,4-difluoro-phenyl)-N′-methyl-N-[3-morpholin-4-yl-5-(pyrrolidin-1-ylmethyl)phenyl]py-rimidine-2,4-diamine], the IC50 turned out to be 21 nM on human EphB4 and 28.9 nM at recombinant EphB4. On to `CC(=O)N1CCN(c2cc(Nc3nccc(N(C)c4ccc(F)c(Cl)c4F)n3)cc(S(C)(=O)=O)c2)CC1` [Example 2.12, 1-[4-[3-[[4-[(3-chloro-2,4-difluoro-phenyl)-methyl-amino]pyrimidin-2-yl]amino]-5-methylsulfonyl-phenyl]piperazin-1-yl] ethanone], for which, at recombinant EphB4, the IC50 is 189 nM. As for `CN(c1ccnc(Nc2cc(F)cc(N3CCOCC3)c2)n1)c1ccc(F)c(Cl)c1F` [Example 2.2, N′-(3-chloro-2,4-difluoro-phenyl)-N-(3-fluoro-5-morpholin-4-yl-phenyl)-N′-methyl-pyrimidine-2,4-diamine], the IC50 came to 74 nM on human EphB4 and 2180 nM at recombinant EphB4.

`CN(C)C(=O)c1cc(Nc2nccc(N(C)c3cccc(Cl)c3)n2)cc(N2CCOCC2)c1` [Example 19.1, 3-[[4-[(3-chlorophenyl)-methyl-amino]pyrimidin-2-yl]amino]-N,N-dimethyl-5-morpholin-4-yl-benzamide]: on recombinant EphB4, the IC50 stood at 419 nM. `COc1cccc(C)c1N(C)c1ccnc(Nc2cc(N3CCOCC3)cc(N3CCOCC3)c2)n1` [Example 25.2, N2-(3,5-dimorpholinophenyl)-N4-(2-methoxy-6-methylphenyl)-N4-methylpyrimidine-2,4-diamine]: the IC50 at recombinant EphB4 stood at 76.9 nM. With `CN1CCN(c2cccc(Nc3nccc(N(C)c4ccc(F)c(Cl)c4F)n3)c2)CC1` [Example 4, N′-(3-chloro-2,4-difluoro-phenyl)-N′-methyl-N-[3-(4-methylpiperazin-1-yl)phenyl]pyrimidine-2,4-diamine], the IC50 against human EphB4 was determined as 1710 nM; on recombinant EphB4, 63.8 nM. Turning to `CN(c1ccnc(Nc2cccc(N3CCOCC3)c2)n1)c1ccc(F)c(Cl)c1F` [Example 2.3, N′-(3-chloro-2,4-difluoro-phenyl)-N′-methyl-N-(3-morpholin-4-ylphenyl)pyrimidine-2,4-diamine], the IC50 on recombinant EphB4 stood at 304 nM. Regarding `C[C@@H](CO)NC(=O)c1cc(Nc2nccc(N(C)c3cccc(Cl)c3)n2)cc(N2CCOCC2)c1` [Example 19.21, 3-[[4-[(3-chlorophenyl)-methyl-amino]pyrimidin-2-yl]amino]-N-[(2S)-1-hydroxypropan-2-yl]-5-morpholin-4-yl-benzamide], the 50% inhibitory concentration (IC50) at recombinant EphB4 was found to be 527 nM. Turning to `Cc1ccc(CO)cc1N(C)c1ccnc(Nc2cc(O[C@H]3CCOC3)cc(N3CCOCC3)c2)n1` [Example 17.9, [4-methyl-3-[methyl-[2-[[3-morpholin-4-yl-5-[(3S)-oxolan-3-yl]oxyphenyl]ami-no]pyrimidin-4-yl]amino]phenyl]methanol], the IC50 at recombinant EphB4 turned out to be 443 nM. As to `C[C@@H](CO)N(C)C(=O)c1cc(Nc2nccc(N(C)c3cccc(Cl)c3)n2)cc(N2CCOCC2)c1` [Example 19.6], the IC50 on recombinant EphB4 came to 339 nM.
